According to PMC9238736 (Journal of the American Heart Association: Cardiovascular …, 2022):

What was measured:
[1] = molecular target: human ether‐à‐go‐go–related gene (hERG) channel (Homo sapiens, UniProt Q12809)
hKir2.1 = molecular target: T1, hKir2.1 (Homo sapiens, UniProt P63252); assay: whole-cell patch clamp, hyperpolarizing ramp, […] °C
T1 sequence (P63252 1-427): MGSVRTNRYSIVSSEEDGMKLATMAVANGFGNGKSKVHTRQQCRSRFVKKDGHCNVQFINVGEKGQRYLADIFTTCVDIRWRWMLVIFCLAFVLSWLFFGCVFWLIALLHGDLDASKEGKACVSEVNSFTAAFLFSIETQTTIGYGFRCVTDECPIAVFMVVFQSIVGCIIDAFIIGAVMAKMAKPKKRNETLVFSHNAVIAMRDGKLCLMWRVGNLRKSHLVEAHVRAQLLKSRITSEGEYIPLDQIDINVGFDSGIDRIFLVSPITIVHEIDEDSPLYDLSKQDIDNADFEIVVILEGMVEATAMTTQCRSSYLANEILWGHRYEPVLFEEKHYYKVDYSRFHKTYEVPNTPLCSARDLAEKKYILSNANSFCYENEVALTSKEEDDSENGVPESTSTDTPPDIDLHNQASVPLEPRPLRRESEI

hKir2.2 = molecular target: T2, hKir2.2 (Homo sapiens, UniProt Q14500); assay: whole-cell patch clamp, hyperpolarizing ramp; assay type: cell-based
T2 sequence (Q14500 1-433): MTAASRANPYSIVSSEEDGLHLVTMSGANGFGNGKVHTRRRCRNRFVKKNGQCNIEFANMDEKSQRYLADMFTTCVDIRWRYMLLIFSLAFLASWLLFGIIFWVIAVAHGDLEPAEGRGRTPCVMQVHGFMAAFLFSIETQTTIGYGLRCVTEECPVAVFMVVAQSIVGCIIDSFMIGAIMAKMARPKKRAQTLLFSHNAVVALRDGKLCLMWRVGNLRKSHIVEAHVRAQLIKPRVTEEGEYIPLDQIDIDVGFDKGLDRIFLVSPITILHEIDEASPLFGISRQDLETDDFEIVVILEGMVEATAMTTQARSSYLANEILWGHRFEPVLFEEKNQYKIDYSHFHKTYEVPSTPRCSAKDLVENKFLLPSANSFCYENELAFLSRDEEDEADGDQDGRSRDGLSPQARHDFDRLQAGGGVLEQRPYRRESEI

human ether‐à‐go‐go–related gene (hERG) channel, sequence (Q12809 whole entry): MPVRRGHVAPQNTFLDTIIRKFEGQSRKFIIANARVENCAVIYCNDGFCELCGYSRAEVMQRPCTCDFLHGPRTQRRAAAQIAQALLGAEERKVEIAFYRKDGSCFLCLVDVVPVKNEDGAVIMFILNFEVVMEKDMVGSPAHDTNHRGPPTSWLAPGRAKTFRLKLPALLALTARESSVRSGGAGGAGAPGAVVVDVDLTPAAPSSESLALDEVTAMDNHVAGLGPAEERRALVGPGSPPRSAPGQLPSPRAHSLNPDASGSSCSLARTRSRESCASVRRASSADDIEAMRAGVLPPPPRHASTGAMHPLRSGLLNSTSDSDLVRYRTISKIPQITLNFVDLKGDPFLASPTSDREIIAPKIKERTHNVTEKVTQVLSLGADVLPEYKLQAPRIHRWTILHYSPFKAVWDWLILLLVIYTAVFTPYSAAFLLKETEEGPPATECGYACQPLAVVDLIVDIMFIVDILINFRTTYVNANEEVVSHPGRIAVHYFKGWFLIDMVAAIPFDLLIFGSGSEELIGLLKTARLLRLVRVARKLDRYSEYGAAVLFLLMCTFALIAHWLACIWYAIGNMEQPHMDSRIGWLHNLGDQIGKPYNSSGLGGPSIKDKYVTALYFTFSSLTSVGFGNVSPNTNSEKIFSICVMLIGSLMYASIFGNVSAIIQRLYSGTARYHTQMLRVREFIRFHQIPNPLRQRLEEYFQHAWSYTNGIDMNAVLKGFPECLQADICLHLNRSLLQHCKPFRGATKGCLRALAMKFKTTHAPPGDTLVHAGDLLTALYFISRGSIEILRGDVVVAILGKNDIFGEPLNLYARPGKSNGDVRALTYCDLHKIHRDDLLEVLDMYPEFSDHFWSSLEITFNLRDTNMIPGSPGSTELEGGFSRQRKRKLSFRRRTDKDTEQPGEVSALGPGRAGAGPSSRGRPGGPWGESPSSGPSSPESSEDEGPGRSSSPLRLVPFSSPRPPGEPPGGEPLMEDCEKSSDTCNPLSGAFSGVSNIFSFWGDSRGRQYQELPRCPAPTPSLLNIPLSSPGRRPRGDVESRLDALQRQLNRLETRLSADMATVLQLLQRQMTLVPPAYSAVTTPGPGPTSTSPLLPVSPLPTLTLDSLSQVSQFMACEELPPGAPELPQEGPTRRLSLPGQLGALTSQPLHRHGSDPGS

SMILES: CCC(=O)C(CC(C)N(C)C)(c1ccccc1)c1ccccc1 (racemic) [methadone]
- IC50 [1]: 2.9 µM
- IC50 (hKir2.1): 2.9 µM

SMILES: CN(C)C(=O)C(CCN1CCC(O)(c2ccc(Cl)cc2)CC1)(c1ccccc1)c1ccccc1 [loperamide]
- IC50 (hKir2.2): 1.2 µM
